From patent US20040006783A1, “Compositions and methods for modulating Rop GTPase activity in plants” (THE REGENTS THE UNIVERSITY OF CALIFORINIA, priority 2002, published 2004)
Like-named read-outs stand apart in the source and are kept apart here.

Key:
[1] = test system: GUS activity in ropgap4-1 seedlings; test: GUS specific activity in ropgap4-1 seedlings; type: in vivo, Arabidopsis thaliana
[2] = test system: ADH; test: ADH specific activity in cell extracts of treated seedlings
[3] = test system: WT seedlings; details: for Viable Seedlings 48 h after Treatment: 30 μM DPI in 3% DMSO, mean ± SE
From the text: (§1) For oxygen deprivation, plates were transferred to an airtight chamber designed to allow entry and exit of 99.998% argon under 0.4 μmols/s^1m^2 per μÅ of light.

[4] = test system: ropgap4-1 seedlings; details: for Viable Seedlings 48 h after Treatment: ropgap4-1, 30 μM DPI in 3% DMSO, mean ± SE
From the text: as §1

[5] = test system: CA-rop2 seedlings; details: for Viable Seedlings 48 h after Treatment: CA-rop2, 30 μM DPI in 3% DMSO, mean ± SE
From the text: as §1

[6] = test system: DN-rop2 seedlings; details: for Viable Seedlings 48 h after Treatment: DN-rop2, 30 μM DPI in 3% DMSO, mean ± SE
From the text: as §1

[7] = test system: H2O2; details: seedlings treated with caffeine and DPI for 24 h
Method: Caffeine (5 mM) was incorporated into the medium of plates to which seedlings were transferred. […] Control seedlings were treated with 3% (v/v) DMSO or transferred to plates not containing caffeine.
H2O2 levels were measured using a modification of the Terashima (1998) method (Terashima et al., Physiol. Plant. 103:295-303 (1998)). Tissue (0.5 g) was homogenized under liquid nitrogen, hydrated in 3 ml of 5% (w/v) metaphosphoric acid and centrifuged at 1,500×g at 4° C. for 20 min. The pH of the supernatant was adjusted to pH 7 with 1M Tricine, 6M NaOH. H2O2 levels were measured in a 500-μl reaction containing 200 mM MOPS-KOH (pH 7.8), 50 mM NADH in 10 mM potassium phosphate (pH 7.8). Absorbance at 340 nm was measured, 0.5 U of Streptococcusfaecalis NADH peroxidase (Sigma) was added, the sample was incubated for 1 h and absorbance at 340 nm was re-measured. H2O2 levels were determined from the decrease in absorbance in 60 min using a standard curve generated from similarly processed H2O2 standards.

Question: For `Cn1c(=O)c2c(ncn2C)n(C)c1=O` [Caffeine], which “effect on GUS activity” value ([1]; caffeine) is on record?
Answer: rose

Question: And the “caffeine promoted increase in ADH specific activity” value ([2]; CA-rop2 seedlings)?
Answer: limited

Question: And the “induction of ADH specific activity” value ([2]; all four genotypes, non-stress conditions, caffeine 5 mM, 24 h)?
Answer: significantly higher levels than the maximal level observed in response to low oxygen

Question: What about the “caffeine promoted increase in ADH specific activity” value ([2]; ropgap4-1 seedlings) of the same compound?
Answer: dramatic

Question: Which results are given for `c1ccc2c(c1)[I+]c1ccccc1-2` [DPI, diphenylene iodonium chloride]?
Answer: effect on rise of GUS activity in response to low oxygen and caffeine ([1]; DPI): blocked; Viable Seedlings 48 h after Treatment ([3]; 0 h oxygen deprivation): 100 Percentage; Viable Seedlings 48 h after Treatment ([3]; 6 h oxygen deprivation): 80 ± 5 Percentage; Viable Seedlings 48 h after Treatment ([3]; 12 h oxygen deprivation): 0 Percentage; Viable Seedlings 48 h after Treatment ([3]; 24 h oxygen deprivation): 0 Percentage; duration of stress that WT seedlings survived ([3]; oxygen deprivation with DPI (over 36 h without DPI)): less than 12 h; Viable Seedlings 48 h after Treatment ([4]; 0 h oxygen deprivation): 100 Percentage; Viable Seedlings 48 h after Treatment ([4]; 6 h oxygen deprivation): 100 Percentage; Viable Seedlings 48 h after Treatment ([4]; 12 h oxygen deprivation): 50 ± 5 Percentage; Viable Seedlings 48 h after Treatment ([4]; 24 h oxygen deprivation): 0 Percentage; effect on survival of O2 deprivation ([4]; ropgap4-1 seedlings, DPI treatment): increased survival of O2 deprivation; Viable Seedlings 48 h after Treatment ([5]; 0 h oxygen deprivation): 100 Percentage; Viable Seedlings 48 h after Treatment ([5]; 6 h oxygen deprivation): 100 Percentage; Viable Seedlings 48 h after Treatment ([5]; 12 h oxygen deprivation): 100 Percentage; Viable Seedlings 48 h after Treatment ([5]; 24 h oxygen deprivation): 0 Percentage; effect on survival of oxygen deprivation ([5]; CA-rop2 seedlings, in the presence of DPI): improved; Viable Seedlings 48 h after Treatment ([6]; 0 h oxygen deprivation): 90 ± 3 Percentage; Viable Seedlings 48 h after Treatment ([6]; 6 h oxygen deprivation): 70 ± 4 Percentage; Viable Seedlings 48 h after Treatment ([6]; 12 h oxygen deprivation): 0 Percentage; Viable Seedlings 48 h after Treatment ([6]; 24 h oxygen deprivation): 0 Percentage; effect on survival of oxygen deprivation ([6]; DN-rop2 seedlings, in the presence of DPI): impaired; effect on caffeine-stimulated increase in H2O2 [7]: effectively blocked; effect on ADH activity ([2]; all four genotypes, control and low oxygen conditions, 30 μM DPI): reduced ADH activity; effect on ADH induction ([2]; ropgap4-1 seedlings, oxygen deprivation, DPI treatment): reduced ADH induction; effect on caffeine-stimulated increase in ADH specific activity ([2]; seedlings treated with caffeine and DPI for 24 h): effectively blocked
